Laboratory results from patent US12049439B2 (OrsoBio, Inc., priority 2018, dated 2024).

Each compound was assayed on PC-3 cells (assay: PC-3 Oxygen Rate Consumption (OCR) Assay). Details: Homo sapiens, 0.05 h, medium with 2% FBS, OCR at 3-min post-injection normalized to % increase over DMSO-treated cells, concentration for half-maximal OCR increase, read-out: EC50-PC3-OCR-FBS-3min.
Type: cell-based
Method in brief: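 PC-3 cells seeded a day before, equilibrated 1 h in XF medium with 10 mM glucose, 1 mM pyruvate, 2% FBS, non-CO2 at 37 °C. Compound injected after basal OCR reads; OCR at 3 min post-injection normalized as % increase over DMSO, EC50 = half-maximal increase; six replicates.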
In the case of CS(=O)(=O)Nc1cc(F)ccc1C(=O)NC12CCC(C#N)(CC1)CC2 [Example 198, N-(4-cyanobicyclo[2.2.2]octan-1-yl)-4-fluoro-2-(methylsulfonamido)benzamide], the EC50 is reported as no less than 200 µM.
Work on O=C(NC12CC(C(F)(F)F)(C1)C2)c1ccc(OC(F)(F)F)cc1NS(=O)(=O)N1CCS(=O)(=O)CC1 [Example 245, 2-((1,1-dioxidothiomorpholine)-4-sulfonamido)-4-(trifluoromethoxy)-N-(3-(trifluoromethyl)bicyclo[1.1.1]pentan-1-yl)benzamide] yielded an EC50 of 3.84 µM.
For CS(=O)(=O)c1ccc(S(=O)(=O)Nc2cc(C(F)(F)F)ccc2C(=O)NC23CCC(CC2)C3)cc1 [Example 45, N-(bicyclo[2.2.1]heptan-1-yl)-2-((4-(methylsulfonyl)phenyl)sulfonamido)-4-(trifluoromethyl)benzamide], the EC50 was 5.45 µM.
Work on CC(C)(C)S(=O)(=O)Nc1ccc(Br)cc1C(=O)NC12CC(C(F)(F)F)(C1)C2 [Example 95, 5-bromo-2-((1,1-dimethylethyl)sulfonamido)-N-(3-(trifluoromethyl)bicyclo[1.1.1]pentan-1-yl)benzamide] yielded an EC50 of 1.12 µM.
Compound NC(=O)c1ccc(S(=O)(=O)Nc2cc(C(F)(F)F)ccc2C(=O)NC23CC(C(F)(F)F)(C2)C3)cc1 [Example 53, 2-((4-carbamoylphenyl)sulfonamido)-4-(trifluoromethyl)-N-(3-(trifluoromethyl)bicyclo[1.1.1]pentan-1-yl)benzamide] has an EC50 of 46.1 µM.
Work on CC(C)(C)c1ccc(S(=O)(=O)Nc2cc(S(C)(=O)=O)ccc2C(=O)NC23CC(C(F)(F)F)(C2)C3)cc1 [Example 16, 2-((4-(tert-butyl)phenyl)sulfonamido)-4-(methylsulfonyl)-N-(3-(trifluoromethyl)bicyclo[1.1.1]pentan-1-yl)benzamide] yielded an EC50 of 5.55 µM.
CS(=O)(=O)Nc1ccc(C(F)(F)F)cc1C(=O)NC12CC(C1)C2 [Example 212, N-(bicyclo[1.1.1]pentan-1-yl)-2-(methylsulfonamido)-5-(trifluoromethyl)benzamide] was tested, and the EC50 was 8.62 µM.
COc1ccc(S(=O)(=O)Nc2cc(C(F)(F)F)ccc2C(=O)NC23CC(C(F)(F)F)(C2)C3)cc1 [Example 111, 2-((4-methoxyphenyl)sulfonamido)-4-(trifluoromethyl)-N-(3-(trifluoromethyl)bicyclo[1.1.1]pentan-1-yl)benzamide] gave an EC50 of 0.811 µM.
N#Cc1ccc(S(=O)(=O)Nc2cc(C(F)(F)F)ccc2C(=O)NC23CC(C(F)(F)F)(C2)C3)cc1 [Example 158, 2-((4-cyanophenyl)sulfonamido)-4-(trifluoromethyl)-N-(3-(trifluoromethyl)bicyclo[1.1.1]pentan-1-yl)benzamide] was tested, and the EC50 was 1.43 µM.
CS(=O)(=O)Nc1ccc(C(F)(F)F)cc1C(=O)NC12CCC(C#N)(CC1)C2 [Example 173, N-(4-cyanobicyclo[2.2.1]heptan-1-yl)-2-(methylsulfonamido)-5-(trifluoromethyl)benzamide] showed an EC50 of 26.4 µM.
In the case of O=C(NC12CCC(C(F)(F)F)(CC1)CC2)c1cc(SC(F)(F)F)ccc1NS(=O)(=O)N1CCS(=O)(=O)CC1 [Example 237, 2-((1,1-dioxidothiomorpholine)-4-sulfonamido)-N-(4-(trifluoromethyl)bicyclo[2.2.2]octan-1-yl)-5-((trifluoromethyl)thio)benzamide], the EC50 is reported as 7.73 µM.
CC(C)(C)S(=O)(=O)Nc1ccc(C(F)(F)F)cc1C(=O)NC12CC3CC(CC(C#N)(C3)C1)C2 [Example 176, N-((1R,5R)-3-cyanoadamantan-1-yl)-2-((1,1-dimethylethyl)sulfonamido)-5-(trifluoromethyl)benzamide] gave an EC50 of 1.7 µM.
CS(=O)(=O)c1ccc(S(=O)(=O)Nc2cc(C(F)(F)F)ccc2C(=O)NC23CC(F)(C2)C3)cc1 [Example 20, N-(3-fluorobicyclo[1.1.1]pentan-1-yl)-2-((4-(methylsulfonyl)phenyl)sulfonamido)-4-(trifluoromethyl)benzamide] was tested, and the EC50 was 14.3 µM.
For N#CC1CN(S(=O)(=O)Nc2ccc(C(F)(F)F)cc2C(=O)NC23CC(C(F)(F)F)(C2)C3)C1 [Example 234, 2-((3-cyanoazetidine)-1-sulfonamido)-5-(trifluoromethyl)-N-(3-(trifluoromethyl)bicyclo[1.1.1]pentan-1-yl)benzamide], the EC50 was 3.86 µM.
CS(=O)(=O)N1C2CCC1CC(NC(=O)c1ccc(Cl)cc1NS(=O)(=O)CCC(F)(F)F)C2 (stereo not shown) [Example 218, 4-chloro-N-(8-(methylsulfonyl)-8-azabicyclo[3.2.1]octan-3-yl)-2-((3,3,3-trifluoropropyl)sulfonamido)benzamide] was tested, and the EC50 was 53.4 µM.
In the case of CS(=O)(=O)Nc1c(F)cccc1C(=O)NC12CC(C(F)(F)F)(C1)C2 [Example 136, 3-fluoro-2-(methylsulfonamido)-N-(3-(trifluoromethyl)bicyclo[1.1.1]pentan-1-yl)benzamide], the EC50 is reported as no less than 100 µM.
Compound CC(C)(C)S(=O)(=O)Nc1ccc(C(F)(F)F)cc1C(=O)NC12CCC(C#N)(CC1)C2 [Example 172, N-(4-cyanobicyclo[2.2.1]heptan-1-yl)-2-((1,1-dimethylethyl)sulfonamido)-5-(trifluoromethyl)benzamide] has an EC50 of 1.66 µM.
N#Cc1ccc(S(=O)(=O)Nc2cc(C(F)(F)F)ccc2C(=O)NC23CC(c4ccccc4)(C2)C3)cc1 [Example 160, 2-((4-cyanophenyl)sulfonamido)-N-(3-phenylbicyclo[1.1.1]pentan-1-yl)-4-(trifluoromethyl)benzamide] was tested, and the EC50 was 0.632 µM.
With CS(=O)(=O)Nc1ccc(C(F)(F)F)cc1C(=O)NC12CC(C#N)(C1)C2 [Example 165, N-(3-cyanobicyclo[1.1.1]pentan-1-yl)-2-(methylsulfonamido)-5(trifluoromethyl)benzamide] the EC50 was 20.8 µM.
With O=C(NC12CC(C1)C2)c1ccc(F)cc1NS(=O)(=O)C1CC1 [Example 50, N-(bicyclo[1.1.1]pentan-1-yl)-2-(cyclopropanesulfonamido)-4-fluorobenzamide] the EC50 was no less than 100 µM.
Compound CS(=O)(=O)Nc1cc(C(F)(F)F)ccc1C(=O)NC12CC(C(F)(F)F)(C1)C2 [Example 147, 2-(methylsulfonamido)-4-(trifluoromethyl)-N-(3-(trifluoromethyl)bicyclo[1.1.1]pentan-1-yl)benzamide] has an EC50 of 1.58 µM.
Work on CC(C)(C)S(=O)(=O)Nc1ccc(C#N)cc1C(=O)NC12CC(c3ccccc3)(C1)C2 [Example 96, 5-cyano-2-((1,1-dimethylethyl)sulfonamido)-N-(3-phenylbicyclo[1.1.1]pentan-1-yl)benzamide] yielded an EC50 of 1.28 µM.
Work on CS(=O)(=O)Nc1ccc(Cl)cc1C(=O)NC12CCC(C(F)(F)F)(CC1)CC2 [Example 208, 5-chloro-2-(methylsulfonamido)-N-(4-(trifluoromethyl)bicyclo[2.2.2]octan-1-yl)benzamide] yielded an EC50 of 10.6 µM.
In the case of CS(=O)(=O)c1ccc(S(=O)(=O)Nc2cc(C(F)(F)F)ccc2C(=O)NC23CC(C2)C3)cc1 [Example 23, N-(bicyclo[1.1.1]pentan-1-yl)-2-((4-(methylsulfonyl)phenyl)sulfonamido)-4-(trifluoromethyl)benzamide], the EC50 is reported as 12 µM.
Work on O=C(NC12CC(C(F)(F)F)(C1)C2)c1ccccc1NS(=O)(=O)c1ccc(Cl)cc1Cl [Example 141, 2-((2,4-dichlorophenyl)sulfonamido)-N-(3-(trifluoromethyl)bicyclo[1.1.1]pentan-1-yl)benzamide] yielded an EC50 of 1.18 µM.
Compound O=C(NC12CC(C(F)(F)F)(C1)C2)c1ccc(C(F)(F)F)cc1NS(=O)(=O)c1cccnc1 [Example 59, 2-(pyridine-3-sulfonamido)-4-(trifluoromethyl)-N-(3-(trifluoromethyl)bicyclo[1.1.1]pentan-1-yl)benzamide] has an EC50 of 1.84 µM.
Compound CN(C)S(=O)(=O)Nc1ccc(C(F)(F)F)cc1C(=O)NC1CC2CCC(C1)N2S(C)(=O)=O (stereo not shown) [Example 174, 2-((N,N-dimethylsulfamoyl)amino)-N-(8-(methylsulfonyl)-8-azabicyclo[3.2.1]octan-3-yl)-5-(trifluoromethyl)benzamide] has an EC50 of 108 µM.
N#CC12CCC(NC(=O)c3cc(C(F)(F)F)ccc3NS(=O)(=O)Cc3ccccc3)(CC1)CC2 [Example 196, N-(4-cyanobicyclo[2.2.2]octan-1-yl)-2-((phenylmethyl)sulfonamido)-5-(trifluoromethyl)benzamide] was tested, and the EC50 was 1.38 µM.
Compound O=C(NC12CCC(C(F)(F)F)(CC1)CC2)c1cc(Cl)ccc1NS(=O)(=O)C1CCS(=O)(=O)CC1 [Example 207, 5-chloro-2-((1,1-dioxidotetrahydro-2H-thiopyran)-4-sulfonamido)-N-(4-(trifluoromethyl)bicyclo[2.2.2]octan-1-yl)benzamide] has an EC50 of 8.12 µM.
With CC(C)(C)S(=O)(=O)Nc1ccc(C(F)(F)F)cc1C(=O)NC12CC(C(F)(F)F)(C1)C2 [Example 157, 2-((1,1-dimethylethyl)sulfonamido)-5-(trifluoromethyl)-N-(3-(trifluoromethyl)bicyclo[1.1.1]pentan-1-yl)benzamide] the EC50 was 0.352 µM.
Work on N#CC12CCC(NC(=O)c3cc(F)ccc3NS(=O)(=O)CCC(F)(F)F)(CC1)CC2 [Example 220, N-(4-cyanobicyclo[2.2.2]octan-1-yl)-5-fluoro-2-((3,3,3-trifluoropropyl)sulfonamido)benzamide] yielded an EC50 of 5.09 µM.
Compound CC(C)(C)S(=O)(=O)Nc1cc(C#N)ccc1C(=O)NC12CCC(C#N)(CC1)CC2 [Example 77, 4-cyano-N-(4-cyanobicyclo[2.2.2]octan-1-yl)-2-((1,1-dimethylethyl)sulfonamido)benzamide] has an EC50 of 8.65 µM.
For N#CC12CC(NC(=O)c3ccc(C(F)(F)F)cc3NS(=O)(=O)c3ccc(OC(F)(F)F)cc3)(C1)C2 [Example 32, N-(3-cyanobicyclo[1.1.1]pentan-1-yl)-2-((4-(trifluoromethoxy)phenyl)sulfonamido)-4-(trifluoromethyl)benzamide], the EC50 was 1.52 µM.
Work on N#CC12CC(NC(=O)c3ccc(C(F)(F)F)cc3NS(=O)(=O)c3ccc4ccccc4c3)(C1)C2 [Example 35, N-(3-cyanobicyclo[1.1.1]pentan-1-yl)-2-(naphthalene-2-sulfonamido)-4-(trifluoromethyl)benzamide] yielded an EC50 of 1.21 µM.
